# From patent US12187706B2, “NLRP3 modulators” (INNATE TUMOR IMMUNITY, INC., priority 2019, dated 2025)
# Molecular target: T1, NLRP3 (Homo sapiens, UniProt Q96P20)
# T1 construct: host or cells: PMA-differentiated THP-1 cells
# Assay: Measurement of IL-1β production in PMA-differentiated THP-1 cells (NLRP3 hIL1B)
# Type: cell-based
# Experimental: Measurement of IL-1β Production in PMA-Differentiated THP-1 Cells
# THP-1 cells were purchased from the American Type Culture Collection and sub-cultured according to instructions from the supplier. Prior to experiments, cells were cultured in RPMI 1640 containing 10% heat inactivated FBS, penicillin (100 units/ml) and streptomycin (100 μg/ml), and maintained in log phase prior to experimental setup. Prior to the experiment THP-1 were treated with PMA (Phorbol 12-myristate 13-acetate) (10 μg/ml) for 24 hours. The day of the experiment the media was removed and attaching cells were treated with trypsin for 2 minutes, cells were then collected, washed with PBS (phosphate buffer saline), spin down, resuspended in 2% heat inactivated FBS with RPMI at a concentration of 1×10^6 cells/ml, and 100 μl was plated in a 96 well plate. Compounds were dissolved in dimethyl sulfoxide (DMSO) and added to the culture medium to achieve desired concentration (e.g. 100, 30, 10, 3, 1, 0.3 or 0.1 μM). Cells were incubated with compounds for 4 hours. Cell free supernatant was collected and the production of IL-1β was evaluated by ELISA. A vehicle only control was run concurrently with each experiment. Final DMSO concentration was 1%.
# Measurement of IL-1β Production in PMA-Differentiated THP-1 Cells (Alternative Procedure)
# THP-1 cells were purchased from the American Type Culture Collection and sub-cultured according to instructions from the supplier. Prior to experiments, cells were cultured in RPMI 1640 containing 10% heat inactivated FBS, penicillin (100 units/ml), streptomycin (100 μg/ml), HEPES (10 mM) and sodium pyruvate (1 mM) and maintained in log phase prior to experimental setup. Prior to the experiment, THP-1 cells were treated with PMA (Phorbol 12-myristate 13-acetate) (20 μg/ml) overnight. The day of the experiment, the media was removed and attached cells were treated with trypsin for 2 minutes, cells were then collected, washed with PBS (phosphate buffer saline), pelleted by centrifugation and resuspended in 2% heat inactivated FBS with RPMI at a concentration of 50,000 cells/well in a 384 well plate. Cell free supernatant was collected and the production of IL-1β was evaluated by ELISA. Compounds were dissolved in dimethyl sulfoxide (DMSO) and added to the culture medium to achieve desired concentration (e.g. 100, 30, 10, 3, 1, 0.3 or 0.1 μM). Cells were incubated with compounds for 2 hours. A vehicle only control was run concurrently with each experiment. Final DMSO concentration was 1%.
# Measurement of IL-1β Production—hTRF Protocol (Second Alternative Procedure)
# Serial dilutions of compounds in DMSO were added to low volume 384 well plates at 100 nl/well using an ECHO 550 acoustic dispenser (Labcyte) to achieve final starting concentration of 10 μM in assay.
# THP-1 cells in RPMI (Gibco, 11875) media with 10% FBS at a density of 1×10^6 cell/ml in a T175 flask were treated with a final concentration of phorbol 12-myristate 13-acetate (PMA) (Sigma, P1585) of 50 ng/ml overnight at 37° C. at 5% CO2 for differentiation. Cells were harvested the next day after rinsing well with dPBS using 0.5% trypsin. A cell solution was prepared of 1×10^6 cells/ml for 50,000 cells in 50 μl/well in RPMI media with 2% FBS. Cells were plated using a multichannel pipette onto the compound dilutions in Greiner, 384 well, black clear bottom tissue culture treated plates (781090). The plates were incubated in 37° C. incubator at 5% CO2 for 2 hours.
# After the 2 hour incubation, the cell plates were spun in the centrifuge for 5 minutes at 1200 rpm. Using the Felix (CyBio), 8 μl of the supernatant was transferred to 384 well, low volume, white proxy plates. (Perkin Elmer, 6008230). A human IL1beta hTRF kit was used to analyze the supernatant (CISBIO, 62HIL1BPEG). The kit instructions were followed for preparing the IL1Beta standard curve and then the antibodies from the kit were diluted 1:40 rather than 1:20 as kit instructed.
# T1 sequence (Q96P20 whole entry): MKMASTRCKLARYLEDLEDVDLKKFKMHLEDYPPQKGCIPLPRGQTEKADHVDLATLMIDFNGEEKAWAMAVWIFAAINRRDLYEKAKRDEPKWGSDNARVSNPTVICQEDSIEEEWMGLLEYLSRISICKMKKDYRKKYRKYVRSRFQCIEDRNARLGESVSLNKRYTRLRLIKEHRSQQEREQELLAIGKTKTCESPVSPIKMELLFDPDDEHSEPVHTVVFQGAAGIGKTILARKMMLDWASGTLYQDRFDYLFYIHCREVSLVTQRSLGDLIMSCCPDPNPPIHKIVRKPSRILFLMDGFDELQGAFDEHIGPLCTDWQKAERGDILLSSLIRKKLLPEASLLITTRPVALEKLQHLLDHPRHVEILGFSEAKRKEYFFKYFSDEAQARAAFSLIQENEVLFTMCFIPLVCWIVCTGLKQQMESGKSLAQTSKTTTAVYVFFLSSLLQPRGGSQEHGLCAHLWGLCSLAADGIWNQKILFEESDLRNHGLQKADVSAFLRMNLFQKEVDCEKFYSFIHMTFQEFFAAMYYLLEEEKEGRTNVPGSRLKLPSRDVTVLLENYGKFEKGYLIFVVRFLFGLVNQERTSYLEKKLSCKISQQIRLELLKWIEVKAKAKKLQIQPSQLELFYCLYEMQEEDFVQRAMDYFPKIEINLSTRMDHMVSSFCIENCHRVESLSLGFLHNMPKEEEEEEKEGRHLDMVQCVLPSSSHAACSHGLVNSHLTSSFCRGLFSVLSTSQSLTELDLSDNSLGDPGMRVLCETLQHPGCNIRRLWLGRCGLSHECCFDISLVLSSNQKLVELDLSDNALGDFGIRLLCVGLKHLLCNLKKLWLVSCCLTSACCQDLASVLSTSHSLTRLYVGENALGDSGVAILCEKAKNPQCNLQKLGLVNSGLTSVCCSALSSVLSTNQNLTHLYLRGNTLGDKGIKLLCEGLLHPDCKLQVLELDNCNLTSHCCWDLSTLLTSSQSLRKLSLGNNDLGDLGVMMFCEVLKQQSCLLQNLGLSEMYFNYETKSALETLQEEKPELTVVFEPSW
row,SMILES,EC50 [µM]
1,COCCCNc1nc(N)nc2cc(-c3ccn[nH]3)ccc12 [Example 94],0.18
2,Nc1nc(NCc2cncnc2)c2ccc(-c3ccn[nH]3)cc2n1 [Example 49],0.46
3,COCCN1CCCC1CNc1nc(N)nc2cc(-c3ccn[nH]3)ccc12 (stereo not shown) [Example 172],2.6
4,Cc1cc(-c2cc[nH]n2)cc2nc(N)nc(NCc3cc[nH]n3)c12 [Example 137],0.17
5,Nc1nc(NC(CO)c2cccnc2)c2ccc(-c3ccn[nH]3)cc2n1 (stereo not shown) [Example 62],1.25
6,CO[C@H]1C[C@H](Nc2nc(N)nc3cc(-c4ccn[nH]4)ccc23)C1 [Example 173],0.14
7,Nc1nc(NCC(F)(F)c2ccccn2)c2ccc(-c3ccn[nH]3)cc2n1 [Example 26],0.12
8,COc1cc(-c2cc[nH]n2)cc2nc(N)nc(NCc3cncnc3)c12 [Example 135],1.44
9,Nc1nc(NCc2cn[nH]c2)c2ccc(-c3ccn[nH]3)cc2n1 [Example 147],0.26
10,"Nc1nc(NCCCO)c2c(-c3cc[nH]n3)cc(-c3cc[nH]n3)cc2n1 [Example 19, 3-((2-amino-5,7-di(1H-pyrazol-3-yl)quinazolin-4-yl)amino)propan-1-ol]",9.86
11,Nc1nc(NCc2cccnc2)c2ccc(-c3ccn[nH]3)cc2n1 [Example 144],0.09
12,Nc1nc(NCCN2CCOCC2)c2ccc(-c3ccn[nH]3)cc2n1 [Example 157],1.32
13,Nc1nc(NCC2(O)CCC2)c2ccc(-c3ccn[nH]3)cc2n1 [Example 38],0.32
14,CC(CO)(CO)Nc1nc(N)nc2cc(-c3ccn[nH]3)ccc12 [Example 83],2.41
15,"CCCC(CCO)Nc1nc(N)nc2cc(-c3ccn[nH]3)ccc12 (single isomer, unassigned) [Example 98, 3-((2-amino-7-(1H-pyrazol-5-yl)quinazolin-4-yl)amino)hexan-1-ol]",0.86
16,CC(C)(O)CNc1nc(N)nc2cc(-c3ccn[nH]3)ccc12 [Example 29],0.39
17,COCC1(CNc2nc(N)nc3cc(-c4cc[nH]n4)ccc23)CC1 [Example 196],0.23
18,"CN(C)c1cc(-c2cc[nH]n2)cc2nc(N)nc(NCCCO)c12 [Example 22, 3-((2-amino-5-(dimethylamino)-7-(1H-pyrazol-3-yl)quinazolin-4-yl)amino)propan-1-ol]",9.24
19,Nc1nc(NCc2cocn2)c2ccc(-c3ccn[nH]3)cc2n1 [Example 155],0.49
20,Nc1nc(NCC(F)F)c2ccc(-c3ccn[nH]3)cc2n1 [Example 78],0.63
21,Nc1nc(NCCO)c2ccc(-c3ccn[nH]3)cc2n1 [Example 45],0.45
22,"C[C@@H](O)CNc1nc(N)nc2cc(-c3ccn[nH]3)ccc12 [Example 1, (R)-1-((2-amino-7-(1H-pyrazol-5-yl)quinazolin-4-yl)amino)propan-2-ol]",0.45
23,COc1cc(-c2cc[nH]n2)cc2nc(N)nc(NCCc3ccccn3)c12 [Example 134],1.74
24,Nc1nc(NC2CC2)c2ccc(-c3cc[nH]n3)cc2n1 [Example 193],0.1
25,Nc1nc(NCC2CCC(=O)N2)c2ccc(-c3ccn[nH]3)cc2n1 (stereo not shown) [Example 43],1.04
26,Nc1nc(NC(CO)c2ncc[nH]2)c2ccc(-c3ccn[nH]3)cc2n1 (stereo not shown) [Example 34],7.67
27,"Nc1nc(N[C@H]2CCC[C@@H](O)C2)c2ccc(-c3ccn[nH]3)cc2n1 (single isomer, unassigned) [Example 179, (cis)-3-((2-amino-7-(1H-pyrazol-5-yl)quinazolin-4-yl)amino)cyclohexan-1-ol]",0.27
28,COc1cc(-c2cc[nH]n2)cc2nc(N)nc(N[C@@H]3CCOC3)c12 [Example 133],0.65

row,SMILES,EC50 [µM]
1,Nc1nc(NC[C@@H](O)CO)c2ccc(-c3ccn[nH]3)cc2n1 [Example 69],1.86
2,"CC(O)(CO)CNc1nc(N)nc2cc(-c3ccn[nH]3)ccc12 (racemic) [Example 11, rac-3-((2-amino-7-(1H-pyrazol-5-yl)quinazolin-4-yl)amino)-2-methylpropane-1,2-diol]",1.14
3,Nc1nc(NCC2(CN3CCOCC3)CC2)c2ccc(-c3cc[nH]n3)cc2n1 [Example 195],0.3
4,"Nc1nc(N[C@@H]2COC[C@H]2O)c2ccc(-c3ccn[nH]3)cc2n1 (racemic) [Example 25, trans-4-((2-amino-7-(1H-pyrazol-5-yl)quinazolin-4-yl)amino)tetrahydrofuran-3-ol]",0.72
5,Nc1nc(NCCO)c2c(F)cc(-c3cc[nH]n3)cc2n1 [Example 126],0.76
6,Nc1nc(NCC#CCO)c2ccc(-c3ccn[nH]3)cc2n1 [Example 106],0.5
7,Nc1nc(NC2(CO)CC2)c2ccc(-c3ccn[nH]3)cc2n1 [Example 65],0.25
8,Nc1nc(N[C@H]2CC[C@@H](O)C2)c2ccc(-c3ccn[nH]3)cc2n1 [Example 159],0.43
9,Nc1nc(NCc2cncnc2)c2c(F)cc(-c3cc[nH]n3)cc2n1 [Example 128],0.83
10,Nc1nc(N[C@@H]2CCC[C@@H]2O)c2ccc(-c3ccn[nH]3)cc2n1 [Example 30],0.3
11,COc1cc(-c2cc[nH]n2)cc2nc(N)nc(NCc3cc[nH]n3)c12 [Example 132],2.18
12,COCCNc1nc(N)nc2cc(-c3ccn[nH]3)ccc12 [Example 102],0.21
13,Nc1nc(NCc2cc[nH]n2)c2ccc(-c3ccn[nH]3)cc2n1 [Example 27],0.43
14,Nc1nc(N[C@@H]2CCOC2)c2c(F)cc(-c3cc[nH]n3)cc2n1 [Example 127],1.22
15,"Nc1nc(NCCCO)c2c(F)cc(-c3ccn[nH]3)cc2n1 [Example 15, 3-((2-amino-5-fluoro-7-(1H-pyrazol-3-yl)quinazolin-4-yl)amino)propan-1-ol]",0.24
16,Nc1nc(N[C@@H]2CCCOC2)c2ccc(-c3ccn[nH]3)cc2n1 [Example 104],0.39
17,"Nc1nc(NCCCO)c2ccc(-c3ccn[nH]3)cc2n1 [Example 14, 3-((2-amino-7-(1H-pyrazol-3-yl)quinazolin-4-yl)amino)propan-1-ol]",0.37
18,Nc1nc(NCCc2cccnc2)c2ccc(-c3ccn[nH]3)cc2n1 [Example 153],0.42
19,Nc1nc(NCc2ccn(-c3ccccn3)n2)c2ccc(-c3ccn[nH]3)cc2n1 [Example 187],0.23
20,Nc1nc(NCc2nc[nH]n2)c2ccc(-c3ccn[nH]3)cc2n1 [Example 32],0.64
21,C[C@]1(O)CC[C@@H](Nc2nc(N)nc3cc(-c4ccn[nH]4)ccc23)CC1 [Example 90],0.83
22,C[C@@H](O)[C@@H](CO)Nc1nc(N)nc2cc(-c3ccn[nH]3)ccc12 [Example 64],3.73
23,"Nc1nc(N[C@H]2CCOC2)c2ccc(-c3ccn[nH]3)cc2n1 [Example 23, (S)-7-(1H-pyrazol-5-yl)-N4-(tetrahydrofuran-3-yl)quinazoline-2,4-diamine]",0.67
24,Cc1cccc2nc(CNc3nc(N)nc4cc(-c5ccn[nH]5)ccc34)cn12 [Example 161],2
25,"Nc1nc(NCC2CCC(=O)N2)c2ccc(-c3ccn[nH]3)cc2n1 (single isomer, unassigned) [Example 5, 5-(((2-amino-7-(1H-pyrazol-5-yl)quinazolin-4-yl)amino)methyl)pyrrolidin-2-one]",13
26,"Cc1cc(-c2cc[nH]n2)cc2nc(N)nc(NCCCO)c12 [Example 21, 3-((2-amino-5-methyl-7-(1H-pyrazol-3-yl)quinazolin-4-yl)amino)propan-1-ol]",0.65
27,Nc1nc(N[C@@H]2CCOC2)c2ccc(-c3cc[nH]n3)cc2n1 [Example 121],1.85
